# Test results: paper PMC7486443, “Generation of Phenothiazine with Potent Anti-TLK1 Activity for Prostate Cancer Therapy” (iScience, 2020)
# Tests used:
# Assay in all cases: biochemical
# Parameters in all cases: DiscoverX KINOMEscan scanMAX competition binding panel, single concentration, percent of control; remaining binding: dose or concentration left out as unconfirmed
# Conditions in all cases: KINOMEscan binding, percent of control; read-out: Table S4_SCANMAX REPORT - related to Fig. 1 / Percent Control
# [1] = target: T1, ABL1(Q252H)-nonphosphorylated (Homo sapiens, UniProt P00519, Q252H)
# T1 construct: nonphosphorylated
# [2] = target: AKT1 (Homo sapiens, UniProt P31749)
# [3] = target: AKT2 (Homo sapiens, UniProt P31751)
# [4] = target: AURKB (Homo sapiens, UniProt Q96GD4)
# [5] = target: BMPR1A (Homo sapiens, UniProt P36894)
# [6] = target: EGFR(L747-E749del, A750P) (Homo sapiens, UniProt P00533, A750P/DEL747-749)
# [7] = target: EGFR(L747-T751del,Sins) (Homo sapiens, UniProt P00533, DEL747-750/T751S)
# [8] = target: EPHA3 (Homo sapiens, UniProt P29320)
# [9] = target: FGFR1 (Homo sapiens, UniProt P11362)
# [10] = target: IRAK4 (Homo sapiens, UniProt Q9NWZ3)
# [11] = target: KIT(D816H) (Homo sapiens, UniProt P10721, D816H)
# [12] = target: LIMK2 (Homo sapiens, UniProt P53671)
# [13] = target: MAP4K4 (Homo sapiens, UniProt O95819)
# [14] = target: T2, MEK6 (Homo sapiens, UniProt P52564)
# T2 construct: gene MAP2K6
# [15] = target: T3, PFPK5(P.falciparum) (Plasmodium falciparum, UniProt P61075)
# T3 construct: gene MAL13P1.279
# [16] = target: PIM2 (Homo sapiens, UniProt Q9P1W9)
# [17] = target: SRC (Homo sapiens, UniProt P12931)
# [18] = target: T4, TRKB (Homo sapiens, UniProt Q16620)
# T4 construct: gene NTRK2
# EGFR(L747-T751del,Sins), sequence (P00533 with tags, fused parts or gaps DEL747-750/T751S): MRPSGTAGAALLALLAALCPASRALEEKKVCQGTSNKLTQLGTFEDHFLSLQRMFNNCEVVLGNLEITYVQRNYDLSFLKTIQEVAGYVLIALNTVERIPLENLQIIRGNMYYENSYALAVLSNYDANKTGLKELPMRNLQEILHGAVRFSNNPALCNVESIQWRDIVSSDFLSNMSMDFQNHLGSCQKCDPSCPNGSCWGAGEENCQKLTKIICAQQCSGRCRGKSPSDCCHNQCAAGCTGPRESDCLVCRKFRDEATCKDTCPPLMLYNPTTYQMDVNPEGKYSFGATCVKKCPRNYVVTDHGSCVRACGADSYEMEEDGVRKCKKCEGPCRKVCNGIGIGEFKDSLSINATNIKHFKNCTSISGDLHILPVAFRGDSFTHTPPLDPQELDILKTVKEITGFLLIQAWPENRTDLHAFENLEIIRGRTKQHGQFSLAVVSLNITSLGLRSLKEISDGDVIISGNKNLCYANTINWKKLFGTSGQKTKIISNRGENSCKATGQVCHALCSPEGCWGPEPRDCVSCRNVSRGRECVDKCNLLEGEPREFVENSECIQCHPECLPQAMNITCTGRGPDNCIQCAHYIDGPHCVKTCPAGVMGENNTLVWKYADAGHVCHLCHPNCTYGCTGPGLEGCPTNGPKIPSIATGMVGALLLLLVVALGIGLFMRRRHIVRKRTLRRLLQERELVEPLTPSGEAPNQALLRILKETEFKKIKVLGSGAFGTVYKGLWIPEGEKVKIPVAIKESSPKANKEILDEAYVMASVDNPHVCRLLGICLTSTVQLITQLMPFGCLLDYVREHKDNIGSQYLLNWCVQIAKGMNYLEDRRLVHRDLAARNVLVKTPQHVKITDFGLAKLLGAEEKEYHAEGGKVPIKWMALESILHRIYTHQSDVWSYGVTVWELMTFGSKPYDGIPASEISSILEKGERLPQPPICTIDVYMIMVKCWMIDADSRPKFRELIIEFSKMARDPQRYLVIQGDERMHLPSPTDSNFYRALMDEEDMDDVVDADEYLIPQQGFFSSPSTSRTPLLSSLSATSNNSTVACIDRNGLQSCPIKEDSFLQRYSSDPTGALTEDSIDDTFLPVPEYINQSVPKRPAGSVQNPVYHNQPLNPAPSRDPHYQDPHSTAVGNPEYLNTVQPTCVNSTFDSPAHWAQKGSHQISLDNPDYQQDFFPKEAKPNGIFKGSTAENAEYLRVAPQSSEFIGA
# KIT(D816H), sequence (P10721 whole entry D816H): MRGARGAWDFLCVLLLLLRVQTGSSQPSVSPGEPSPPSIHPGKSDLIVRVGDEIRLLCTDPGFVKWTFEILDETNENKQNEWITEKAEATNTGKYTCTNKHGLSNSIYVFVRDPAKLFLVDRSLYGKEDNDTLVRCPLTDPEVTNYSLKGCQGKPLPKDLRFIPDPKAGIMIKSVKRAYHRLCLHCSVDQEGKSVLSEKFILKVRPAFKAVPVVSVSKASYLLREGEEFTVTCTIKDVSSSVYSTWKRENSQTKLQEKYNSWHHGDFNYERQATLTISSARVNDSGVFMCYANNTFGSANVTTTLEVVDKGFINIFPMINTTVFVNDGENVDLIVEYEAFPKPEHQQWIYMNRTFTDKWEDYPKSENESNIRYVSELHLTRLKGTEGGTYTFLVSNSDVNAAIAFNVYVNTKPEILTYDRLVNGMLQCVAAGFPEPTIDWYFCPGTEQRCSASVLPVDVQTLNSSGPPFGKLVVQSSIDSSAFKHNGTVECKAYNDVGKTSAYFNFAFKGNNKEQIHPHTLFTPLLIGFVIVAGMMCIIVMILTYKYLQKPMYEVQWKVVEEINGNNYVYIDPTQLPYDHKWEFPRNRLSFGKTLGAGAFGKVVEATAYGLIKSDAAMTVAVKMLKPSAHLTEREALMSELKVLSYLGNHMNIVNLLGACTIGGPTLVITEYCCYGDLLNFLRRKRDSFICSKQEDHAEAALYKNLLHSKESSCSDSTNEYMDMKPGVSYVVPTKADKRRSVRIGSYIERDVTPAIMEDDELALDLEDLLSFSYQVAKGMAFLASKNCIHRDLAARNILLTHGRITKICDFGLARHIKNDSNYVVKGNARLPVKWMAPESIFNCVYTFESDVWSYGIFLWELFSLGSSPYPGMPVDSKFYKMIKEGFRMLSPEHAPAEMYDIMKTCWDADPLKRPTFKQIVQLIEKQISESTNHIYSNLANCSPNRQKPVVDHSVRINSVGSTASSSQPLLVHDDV
# AURKB, sequence (Q96GD4 whole entry): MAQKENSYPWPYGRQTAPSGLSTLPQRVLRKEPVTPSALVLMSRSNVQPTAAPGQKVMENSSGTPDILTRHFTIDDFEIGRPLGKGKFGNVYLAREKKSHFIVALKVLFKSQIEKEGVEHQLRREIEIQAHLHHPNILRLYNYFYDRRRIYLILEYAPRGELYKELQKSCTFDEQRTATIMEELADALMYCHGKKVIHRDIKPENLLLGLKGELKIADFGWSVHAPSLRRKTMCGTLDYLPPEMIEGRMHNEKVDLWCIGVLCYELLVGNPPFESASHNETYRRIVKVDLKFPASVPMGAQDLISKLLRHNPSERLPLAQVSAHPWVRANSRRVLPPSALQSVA
# BMPR1A, sequence (P36894 whole entry): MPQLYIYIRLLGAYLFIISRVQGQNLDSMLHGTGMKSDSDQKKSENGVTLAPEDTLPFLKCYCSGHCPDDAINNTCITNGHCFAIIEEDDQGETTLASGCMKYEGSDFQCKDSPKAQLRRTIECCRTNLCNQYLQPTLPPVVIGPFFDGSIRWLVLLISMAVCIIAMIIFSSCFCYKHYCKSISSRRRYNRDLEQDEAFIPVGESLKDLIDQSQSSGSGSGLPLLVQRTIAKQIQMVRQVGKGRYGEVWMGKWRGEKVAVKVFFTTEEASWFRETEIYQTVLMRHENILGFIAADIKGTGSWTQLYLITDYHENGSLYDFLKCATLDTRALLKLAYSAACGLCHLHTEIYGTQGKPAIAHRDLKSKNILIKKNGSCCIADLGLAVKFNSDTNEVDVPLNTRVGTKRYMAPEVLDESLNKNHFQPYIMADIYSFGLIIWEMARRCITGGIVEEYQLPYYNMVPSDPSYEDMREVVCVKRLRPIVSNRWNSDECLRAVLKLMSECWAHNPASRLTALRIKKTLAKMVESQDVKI
# FGFR1, sequence (P11362 whole entry): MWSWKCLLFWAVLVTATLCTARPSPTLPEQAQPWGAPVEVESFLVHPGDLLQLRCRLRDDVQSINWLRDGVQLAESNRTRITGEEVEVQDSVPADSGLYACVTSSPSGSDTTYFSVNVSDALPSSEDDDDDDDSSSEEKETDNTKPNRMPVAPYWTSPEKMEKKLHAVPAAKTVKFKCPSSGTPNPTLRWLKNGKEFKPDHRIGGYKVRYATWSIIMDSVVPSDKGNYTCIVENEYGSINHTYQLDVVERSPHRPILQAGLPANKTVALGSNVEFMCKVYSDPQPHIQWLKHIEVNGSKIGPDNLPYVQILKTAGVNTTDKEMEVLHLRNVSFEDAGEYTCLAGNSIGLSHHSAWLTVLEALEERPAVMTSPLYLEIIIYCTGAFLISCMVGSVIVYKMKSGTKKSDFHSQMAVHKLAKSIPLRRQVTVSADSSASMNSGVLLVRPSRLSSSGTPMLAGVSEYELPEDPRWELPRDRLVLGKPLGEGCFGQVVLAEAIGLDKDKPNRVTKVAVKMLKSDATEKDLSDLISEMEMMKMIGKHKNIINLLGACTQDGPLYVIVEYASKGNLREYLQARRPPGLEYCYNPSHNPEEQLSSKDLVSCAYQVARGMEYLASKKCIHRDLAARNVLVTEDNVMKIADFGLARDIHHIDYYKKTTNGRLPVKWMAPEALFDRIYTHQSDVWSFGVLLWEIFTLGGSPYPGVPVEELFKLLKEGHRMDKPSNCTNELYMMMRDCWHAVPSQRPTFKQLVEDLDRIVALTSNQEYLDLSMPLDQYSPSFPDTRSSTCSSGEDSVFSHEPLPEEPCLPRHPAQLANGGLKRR
# AKT1, sequence (P31749 whole entry): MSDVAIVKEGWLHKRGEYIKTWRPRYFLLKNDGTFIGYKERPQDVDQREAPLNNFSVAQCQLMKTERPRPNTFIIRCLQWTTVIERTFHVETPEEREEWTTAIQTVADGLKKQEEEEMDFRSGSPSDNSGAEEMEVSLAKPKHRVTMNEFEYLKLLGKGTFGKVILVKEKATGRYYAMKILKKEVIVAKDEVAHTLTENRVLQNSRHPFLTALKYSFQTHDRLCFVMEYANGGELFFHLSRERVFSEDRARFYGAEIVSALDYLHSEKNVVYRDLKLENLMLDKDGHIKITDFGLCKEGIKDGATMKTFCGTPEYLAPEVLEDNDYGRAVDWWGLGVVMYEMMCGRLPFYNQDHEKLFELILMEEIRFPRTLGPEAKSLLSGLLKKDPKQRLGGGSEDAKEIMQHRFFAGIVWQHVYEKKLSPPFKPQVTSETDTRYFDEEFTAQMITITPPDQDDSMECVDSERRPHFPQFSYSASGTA
# LIMK2, sequence (P53671 whole entry): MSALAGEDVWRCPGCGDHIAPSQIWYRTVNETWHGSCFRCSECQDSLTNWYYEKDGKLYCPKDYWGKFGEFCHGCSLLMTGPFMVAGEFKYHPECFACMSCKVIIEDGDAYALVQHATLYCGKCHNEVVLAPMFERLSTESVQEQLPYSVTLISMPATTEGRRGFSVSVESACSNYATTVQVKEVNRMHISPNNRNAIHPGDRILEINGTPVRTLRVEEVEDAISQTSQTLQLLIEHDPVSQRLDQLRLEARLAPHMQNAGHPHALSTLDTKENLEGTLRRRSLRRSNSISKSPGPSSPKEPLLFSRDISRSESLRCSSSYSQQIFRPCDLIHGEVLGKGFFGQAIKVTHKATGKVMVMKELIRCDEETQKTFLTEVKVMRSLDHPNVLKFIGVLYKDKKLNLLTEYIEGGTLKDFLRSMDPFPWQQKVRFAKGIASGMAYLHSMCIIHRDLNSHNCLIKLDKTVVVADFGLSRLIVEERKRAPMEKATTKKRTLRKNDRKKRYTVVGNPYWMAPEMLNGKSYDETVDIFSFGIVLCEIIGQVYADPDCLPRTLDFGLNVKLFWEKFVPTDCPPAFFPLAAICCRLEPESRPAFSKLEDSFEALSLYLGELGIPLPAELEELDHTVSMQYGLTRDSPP
smiles,measurement,setting,value
c1ccc2c(c1)Sc1ccccc1N2CCN1CCOCC1 [J54],remaining binding,[1],78%
same,remaining binding,[2],97%
same,remaining binding,[3],100%
same,remaining binding,[4],100%
same,remaining binding,[5],72%
same,remaining binding,[6],90%
same,remaining binding,[7],92%
same,remaining binding,[8],99%
same,remaining binding,[9],94%
same,remaining binding,[10],100%
same,remaining binding,[11],62%
same,remaining binding,[12],100%
same,remaining binding,[13],66%
same,remaining binding,[14],96%
same,remaining binding,[15],98%
same,remaining binding,[16],42%
same,remaining binding,[17],96%
same,remaining binding,[18],89%
